Measured values from US6350585B1, “Reagent for assay of amylase isozyme activity” (priority 1998, dated 2002).

Legend:
[1] = biological target: T1, P-type amylase (Calibzyme P) (Homo sapiens, UniProt P04746); test: amylase isozyme activity assay with sodium azide as activator, P-type amylase sample; type: biochemical; details: for Percent residual enzyme activity: composition C/D
T1 construct: purchased International Reagents Corporation Calibzyme P
T1 sequence (P04746 16-511): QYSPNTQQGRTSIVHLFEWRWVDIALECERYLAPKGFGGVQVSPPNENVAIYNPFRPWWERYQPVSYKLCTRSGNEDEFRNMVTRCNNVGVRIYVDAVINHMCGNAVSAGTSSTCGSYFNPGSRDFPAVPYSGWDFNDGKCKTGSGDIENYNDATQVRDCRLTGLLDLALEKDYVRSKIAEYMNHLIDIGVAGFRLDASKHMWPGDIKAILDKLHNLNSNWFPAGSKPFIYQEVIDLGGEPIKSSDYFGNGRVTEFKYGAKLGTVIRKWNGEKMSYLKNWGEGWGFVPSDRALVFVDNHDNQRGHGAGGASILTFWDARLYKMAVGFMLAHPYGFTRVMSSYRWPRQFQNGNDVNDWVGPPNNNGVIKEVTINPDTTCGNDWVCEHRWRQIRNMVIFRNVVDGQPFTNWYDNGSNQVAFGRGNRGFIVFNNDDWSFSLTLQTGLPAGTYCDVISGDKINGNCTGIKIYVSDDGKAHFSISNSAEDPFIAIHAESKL
Protocol: S-type amylase inhibitory antibody 88E8 (manufactured by Roche Diagnostics K.K.) 20 mg/L
S-type amylase inhibitory antibody 66C7 (manufactured by Roche Diagnostics K.K.) 5 mg/L
(§1) Substrate (GalG2CNP (Example) or G3CNP (Comparative Example)) 2.6 mM
(§2) (2) P-type Amylase (Calibzyme P, Manufactured by International Reagents Corporation)
Each of the above-mentioned samples (0.05 mL) was added to respective reagent C and D (3 mL) and the mixtures were left standing at 37° C. for 3 minutes. Then, change in absorbance at 405 nm was assayed and change in absorbance per minute was calculated.
In the Tables, P is the case where P-type amylase was used as the sample, and S is the case where S-type amylase was used. The relative sensitivity of P and S is based on the change in absorbance of G3CNP as 100, wherein sodium azide was 300 mM.
Percent residual enzyme activity and relative sensitivity were calculated by the following formulas.
Percent residual enzyme activity (%)=(change in absorbance of composition C)/(change in absorbance of composition D)×100
Relative sensitivity (%)=(change in absorbance of composition D)/(change in absorbance of Comparative Example wherein sodium azide was 300 mM)×100

[2] = biological target: T1, P-type amylase (Calibzyme P); test: amylase isozyme activity assay with potassium thiocyanate as activator, P-type amylase sample; type: biochemical; details: for Change in absorbance, Containing Antibody (Composition A) / Change in absorbance, Without antibody (Composition B) / Relative sensitivity / Percent residual enzyme activity: P-type amylase; for Relative sensitivity: G3CNP at 900 mM = 100; for Percent residual enzyme activity: composition A/B
Protocol: A reagent for amylase isozyme activity assay comprising each composition as mentioned below was prepared. In the Table showing the composition, GalG2CNP (Example) is 2-chloro-4-nitrophenyl 4-O-β-D-galactopyranosylmaltoside, and G3CNP (Comparative Example) is 2-chloro-4-nitrophenylmaltotrioside.
S-type amylase-inhibiting antibody 88E8 (manufactured by Roche Diagnostics K.K.) 20 mg/L
S-type amylase-inhibiting antibody 66C7 (manufactured by Roche Diagnostics K.K.) 5 mg/L
as §1, §2
Each sample (0.05 mL was added to the reagent A (3 mL) and the reagent B (3 mL), respectively, and the mixtures were allowed to stand at 37° C. for 3 minutes. Then, the change in absorbance at 405 nm was assayed, and the change in absorbance per minute was calculated. The results are shown in Tables 1 and 2.
In the Tables, P is the case where P-type amylase was used as the sample, and S is the case where S-type amylase was used.
Percent residual enzyme activity (%)=(change in absorbance of composition A)/(change in absorbance of composition B)×100
Relative sensitivity (%)=(change in absorbance of composition B)/(change in absorbance of Comparative Example wherein potassium thiocyanate was 900 mM)×100

## O=[N+]([O-])c1ccc(O[C@H]2O[C@H](CO)[C@@H](O[C@H]3O[C@H](CO)[C@@H](O[C@H]4O[C@H](CO)[C@@H](O)[C@H](O)[C@H]4O)[C@H](O)[C@H]3O)[C@H](O)[C@H]2O)c(Cl)c1 [Example G3CNP, 2-chloro-4-nitrophenylmaltotrioside, reference compound]
[1]; sodium azide 0 mM
  Change in absorbance, Containing Antibody (Composition C): 9.4 mABS/min
  Change in absorbance, Without antibody (Composition D): 9.4 mABS/min
  Percent residual enzyme activity: 100.0%
[1]; sodium azide 0 mM, G3CNP at 300 mM = 100
  Relative sensitivity: 20.6%
[1]; sodium azide 30 mM
  Change in absorbance, Containing Antibody (Composition C): 19.8 mABS/min
  Change in absorbance, Without antibody (Composition D): 20.5 mABS/min
  Percent residual enzyme activity: 96.6%
[1]; sodium azide 30 mM, G3CNP at 300 mM = 100
  Relative sensitivity: 45.0%
[1]; sodium azide 30 mM, G3CNP at 300 mM = 100, listed as Comparative Example 2
  Relative sensitivity: about 45%
[1]; sodium azide 60 mM
  Change in absorbance, Containing Antibody (Composition C): 26.3 mABS/min
  Change in absorbance, Without antibody (Composition D): 26.0 mABS/min
  Percent residual enzyme activity: 101.2%
[1]; sodium azide 60 mM, G3CNP at 300 mM = 100
  Relative sensitivity: 57.0%
[1]; sodium azide 90 mM
  Change in absorbance, Containing Antibody (Composition C): 31.8 mABS/min
  Change in absorbance, Without antibody (Composition D): 32.0 mABS/min
  Percent residual enzyme activity: 99.4%
[1]; sodium azide 90 mM, G3CNP at 300 mM = 100
  Relative sensitivity: 70.2%
[1]; sodium azide 120 mM
  Change in absorbance, Containing Antibody (Composition C): 35.3 mABS/min
  Change in absorbance, Without antibody (Composition D): 33.7 mABS/min
  Percent residual enzyme activity: 104.7%
[1]; sodium azide 120 mM, G3CNP at 300 mM = 100
  Relative sensitivity: 73.9%
[1]; sodium azide 150 mM
  Change in absorbance, Containing Antibody (Composition C): 37.5 mABS/min
  Change in absorbance, Without antibody (Composition D): 37.1 mABS/min
  Percent residual enzyme activity: 101.1%
[1]; sodium azide 150 mM, G3CNP at 300 mM = 100
  Relative sensitivity: 81.4%
[1]; sodium azide 200 mM
  Change in absorbance, Containing Antibody (Composition C): 40.9 mABS/min
  Change in absorbance, Without antibody (Composition D): 41.3 mABS/min
  Percent residual enzyme activity: 99.0%
[1]; sodium azide 200 mM, G3CNP at 300 mM = 100
  Relative sensitivity: 90.6%
[1]; sodium azide 250 mM
  Change in absorbance, Containing Antibody (Composition C): 43.6 mABS/min
  Change in absorbance, Without antibody (Composition D): 42.8 mABS/min
  Percent residual enzyme activity: 101.9%
[1]; sodium azide 250 mM, G3CNP at 300 mM = 100
  Relative sensitivity: 93.9%
[1]; sodium azide 300 mM
  Change in absorbance, Containing Antibody (Composition C): 45.4 mABS/min
  Change in absorbance, Without antibody (Composition D): 45.6 mABS/min
  Percent residual enzyme activity: 99.6%
[1]; sodium azide 300 mM, G3CNP at 300 mM = 100
  Relative sensitivity: 100.0%
[2]; potassium thiocyanate 0 mM
  Change in absorbance, Containing Antibody (Composition A): 9.3 mABS/min
  Change in absorbance, Without antibody (Composition B): 9.3 mABS/min
  Relative sensitivity: 19.4%
  Percent residual enzyme activity: 100.0%
[2]; potassium thiocyanate 50 mM
  Change in absorbance, Containing Antibody (Composition A): 17.1 mABS/min
  Change in absorbance, Without antibody (Composition B): 17.7 mABS/min
  Relative sensitivity: 37.0%
  Percent residual enzyme activity: 96.6%
[2]; potassium thiocyanate 100 mM
  Change in absorbance, Containing Antibody (Composition A): 22.3 mABS/min
  Change in absorbance, Without antibody (Composition B): 23.4 mABS/min
  Relative sensitivity: 48.9%
  Percent residual enzyme activity: 95.3%
[2]; potassium thiocyanate 140 mM
  Change in absorbance, Containing Antibody (Composition A): 26.1 mABS/min
  Change in absorbance, Without antibody (Composition B): 27.2 mABS/min
  Relative sensitivity: 56.8%
  Percent residual enzyme activity: 96.0%
[2]; potassium thiocyanate 200 mM
  Change in absorbance, Containing Antibody (Composition A): 30.3 mABS/min
  Change in absorbance, Without antibody (Composition B): 31.6 mABS/min
  Relative sensitivity: 66.0%
  Percent residual enzyme activity: 95.9%
[2]; potassium thiocyanate 300 mM
  Change in absorbance, Containing Antibody (Composition A): 37.3 mABS/min
  Change in absorbance, Without antibody (Composition B): 39.3 mABS/min
  Relative sensitivity: 82.0%
  Percent residual enzyme activity: 94.9%
[2]; potassium thiocyanate 400 mM
  Change in absorbance, Containing Antibody (Composition A): 42.6 mABS/min
  Change in absorbance, Without antibody (Composition B): 43.7 mABS/min
  Relative sensitivity: 91.2%
  Percent residual enzyme activity: 97.5%
[2]; potassium thiocyanate 500 mM
  Change in absorbance, Containing Antibody (Composition A): 46.6 mABS/min
  Change in absorbance, Without antibody (Composition B): 46.7 mABS/min
  Relative sensitivity: 97.5%
  Percent residual enzyme activity: 99.8%
[2]; potassium thiocyanate 600 mM
  Change in absorbance, Containing Antibody (Composition A): 48.1 mABS/min
  Change in absorbance, Without antibody (Composition B): 47.5 mABS/min
  Relative sensitivity: 99.2%
  Percent residual enzyme activity: 101.3%
[2]; potassium thiocyanate 700 mM
  Change in absorbance, Containing Antibody (Composition A): 49.9 mABS/min
  Change in absorbance, Without antibody (Composition B): 49.4 mABS/min
  Relative sensitivity: 103.1%
  Percent residual enzyme activity: 101.0%
[2]; potassium thiocyanate 800 mM
  Change in absorbance, Containing Antibody (Composition A): 49.8 mABS/min
  Change in absorbance, Without antibody (Composition B): 48.8 mABS/min
  Relative sensitivity: 101.9%
  Percent residual enzyme activity: 102.0%
[2]; potassium thiocyanate 900 mM
  Change in absorbance, Containing Antibody (Composition A): 48.6 mABS/min
  Change in absorbance, Without antibody (Composition B): 47.9 mABS/min
  Relative sensitivity: 100.0%
  Percent residual enzyme activity: 101.5%
[2]; potassium thiocyanate 200 mM, standard = G3CNP at 900 mM
  relative sensitivity of P-type amylase as multiple of the standard sensitivity: about ⅔
